This is an account of results in patent US12083093B2, “Composition for preventing or treating cellular senescence-related diseases comprising salinomycin as effective component” (RESEARCH COOPERATION FOUNDATION OF YEUNGNAM UNIVERSITY, priority 2018, dated 2024).

Data set [1] relates to premature senescent retinal pigmented epithelial cells (ARPE) by doxorubicin. Put plainly: CCK-8 cell survival, doxorubicin-induced premature senescent retinal pigmented epithelial cells. Format: cell-based, human. To be noted: 100 nM, 4 days; compared to DMSO-treated group; FIG. 5A, 5B. The protocol: (§1) Each cell was treated in a serum-free culture solution containing doxorubicin (0.5 μM) for 4 hours. After washing the cells with a serum-free culture solution, the cells were cultured for 4 days in a culture solution containing 10% FBS, and then cellular aging was confirmed by measuring the level of senescence by staining with senescence-associated beta galactosidase.
(§2) After each sample was dissolved in DMSO, young cells, replicative senescent cells and senescent cells in which premature aging was induced by treating with doxorubicin were treated with 100 nM salinomycin, 100 nM rapamycin, 100 nM ABT263. After incubation for 4 days in a 37° C., 5% CO2 incubator, the degree of cell survival was confirmed by CCK-8 analysis, the degree of cellular aging was confirmed by senescence-associated β-galactosidase (SAβG) staining, p53 and p16 protein expression analysis.
Young cells (1×10^3 cells/well) or senescent cells (2×10^3 cells/well) were dispensed into a 96-well plate, and cultured overnight in a 37° C., 5% CO2 incubator. Salinomycin, ABT263 and rapamycin were treated at each concentration, and then incubated for 4 days in a 37° C., 5% CO2 incubator. […] Then, the absorbance was measured at 450 nm using a Microplate reader.
The degree of cell survival was expressed as a relative value for the absorbance of the control group treated with only DMSO as 100%. […]

Data set [2] has the same test system. It counts as cell-based, human. The procedure:
as §1
Cytotoxicity against young and senescent cells was investigated with a lactate dehydrogenase (LDH) activity kit (Dojindo Molecular Technologies Inc.). Young cells (1×10^3 cells/100 μl/well) or senescent cells (2×10^3 cells/100 μl/well) were dispensed into a 96-well plate, and then cultured overnight in a 37° C., 5% CO2 incubator.
Salinomycin, ABT263 and rapamycin were treated at each concentration, and then incubated for 4 days in a 37° C., 5% CO2 incubator. After transferring the cell culture solution to a 1.5 ml tube, it was centrifuged at 4° C. and 12,000 rpm. 100 μl of the supernatant was dispensed into a 96-well plate, and 100 μl of the LDH measurement solution was added to each well, followed by reaction in a CO2 incubator for 30 minutes. 50 μl of the LDH reaction stop solution was added, and absorbance was measured at 490 nm using a microplate reader. The level of LDH activity was expressed as a relative value based on the absorbance of the control group treated with only DMSO.

The next data set deals with young fibroblasts (HDF). Put plainly: CCK-8 cell survival, young human fibroblasts. It counts as cell-based. The following applies: young cells, increasing concentration of salinomycin; FIG. 2A, 2D. The procedure: as §2
Young cells (1×10^3 cells/well) or senescent cells (2×10^3 cells/well) were dispensed into a 96-well plate, and cultured overnight in a 37° C., 5% CO2 incubator. Salinomycin, ABT263 and rapamycin were treated at each concentration, and then incubated for 4 days in a 37° C., 5% CO2 incubator. 10 μl of CCK-8 reagent (Dojindo Molecular Technologies Inc., Kumamoto, Japan) was added to each well, and incubated for 2 hours in an incubator. Then, the absorbance was measured at 450 nm using a Microplate reader.
(§3) The degree of cell survival was expressed as a relative value for the absorbance of the control group treated with only DMSO as 100%.

In data set [3] the test system is premature senescent human fibroblasts induced by doxorubicin (HDF). Put plainly: SAβG activity staining, doxorubicin-induced premature senescent human fibroblasts. Format: cell-based. The following applies: 100 nM, 4 days; compared to DMSO-treated group; FIG. 1A, 1B. The procedure:
as §1, §2
The cells were washed with 1× phosphate buffer solution, and fixed with a phosphate buffer solution containing 3.7% (v/v) paraformaldehyde. After adding 1 mg/ml 5-bromo-4-chloro-3-indolyl-β-D-galactoside, 40 mM citric acid-sodium phosphate (pH 6.0), 5 mM potassium ferricyanide, 5 mM potassium ferrocyanide, 150 mM NaCl, and 2 mM MgCl2 solution, it was reacted at 37° C. for 18 hours. It was stained with eosin as a control stain and cells stained blue in the cytoplasm were identified using an optical microscope. […]

The test system of data set [4] is replicative senescent human fibroblasts (HDF). In words: CCK-8 cell survival, replicative senescent human fibroblasts. It counts as cell-based. To be noted: replicative senescent cells, increasing concentration of salinomycin; FIG. 2A, 2D. The procedure:
(§4) After dispensing 2×10^5 cells in a 100 mm culture dish, they were cultured in a 37° C., 5% CO2 incubator. When the cells grew to 80-90% in the culture dish, the cells were removed by treatment with trypsin-EDTA, and the number of cells was measured, and the cell population doubling time (PDT) was measured.
(§5) By successively subculturing the cells in the same process as described above, replication aging was induced. PDT of young fibroblasts was 36 hours, PDT of replicative senescent fibroblasts was 12 days, PDT of young vascular endothelial cells was 24 hours, and PDT of replicative senescent vascular endothelial cells was 7 days.
After each sample was dissolved in DMSO, young cells, replicative senescent cells and senescent cells in which premature aging was induced by treating with doxorubicin were treated with 100 nM salinomycin, 100 nM rapamycin, 100 nM ABT263. […]
Young cells (1×10^3 cells/well) or senescent cells (2×10^3 cells/well) were dispensed into a 96-well plate, and cultured overnight in a 37° C., 5% CO2 incubator. […] Then, the absorbance was measured at 450 nm using a Microplate reader.
as §3

Data set [5] has as its system replicative senescent vascular endothelial cells (HUVEC). Put plainly: SAβG activity staining, replicative senescent HUVEC. Format: cell-based, human. To be noted: salinomycin treatment, 4 days; FIG. 4A, 4B. The procedure:
as §4, §5, §2
The cells were washed with 1× phosphate buffer solution, and fixed with a phosphate buffer solution containing 3.7% (v/v) paraformaldehyde. […]

The structures appear in SMILES notation.

As for `CC[C@@H](C(=O)[C@@H](C)[C@@H](O)[C@H](C)[C@@H]1O[C@@H]([C@@H](CC)C(=O)O)CC[C@@H]1C)[C@H]1O[C@]2(C=C[C@@H](O)[C@]3(CC[C@@](C)([C@H]4CC[C@](O)(CC)[C@H](C)O4)O3)O2)[C@H](C)C[C@@H]1C` [salinomycin], the entries for the “cell survival (CCK-8)” value (in data set [1]; with young fibroblasts (HDF); in data set [4]) were “significantly (p<0.01) reduced”, “no change” and “no change”, respectively. In data set [2], the “cytotoxicity by LDH activity” value is given as “significantly increased”. Moreover, the SAβG activity entry in data set [3] is on record as “significantly reduced”; in data set [5], “decreased”.
